These results are taken from US10905683B2, “Compositions and uses of amidine derivatives” (BIOCRYST PHARMACEUTICALS, INC., priority 2014, dated 2021).

Structures are written as SMILES. ≈ marks a conversion by molar mass, not a printed value.

Series [1] in a line: octanol-PBS pH 7.4 partition coefficient (log D7.4) assay. As to conditions: octanol/0.01 M phosphate buffer pH 7.4, 24 hours, LC/MS/MS. It counts as physicochemical. The protocol:
A 1 μL volume of a 1 mM stock solution of the compound in dimethyl sulfoxide (DMSO) was added to 500 μL 0.01 M phosphate buffer pH 7.4 (saturated with octanol) and 500 μL of octanol (saturated with 0.01 M phosphate buffer). […] Samples were prepared in triplicate.

Series [2] is described as follows: Concentration achieved in formulations and excipient mixtures. As to conditions: in the (oral) pharmaceutical compositions described. It counts as physicochemical. How it is done:
In initial formulation work for the amidine compounds described herein, in particular 3-[2-(4-carbamimidoyl-phenylcarbamoyl)-5-methoxy-4-vinyl-phenyl]-6-(cyclopropylmethyl-carbamoyl)-pyridine-2-carboxylic acid, extensive studies were carried out to identify a suitable mixture of excipients to produce the oral formulation described herein.
Specifically, a variety of approaches were taken to develop suitable oral formulations of 3-[2-(4-carbamimidoyl-phenylcarbamyl)-5-methoxy-4-vinyl-phenyl]-6-(cyclopropylmethyl-carbamoyl)-pyridine-2-carboxylic acid. The approaches taken included use of a variety of hydrophilic polymers, including α-cyclodextrin and a polyanionic 3-cyclodextrin derivative with a sodium sulfonate salt separated from the lipophilic cavity by a butyl ether or sulfobutylether spacer group in combination with a variety of co-solvents. In addition, the compound was evaluated in formulations created by a number of different technologies (such as dry blends, nanosuspensions, solid dispersion and emulsions) using a variety of approaches.

A short description of series [3]: Polymorphic conversion of Form A under relative humidity. The settings on record: RH 43%, 75% and 100%, room temperature. The format is physicochemical. From the text:
In another embodiment, pharmaceutical compositions of Form A, in particular the oral pharmaceutical compositions described herein, when administered to a subject provide for increased bioavailability of the compound as compared to amorphous 3-[2-(4-carbamimidoyl-phenylcarbamoyl)-5-methoxy-4-vinylphenyl]-6-(cyclopropylmethyl-carbamoyl)-pyridine-2-carboxylic acid and salts thereof and other crystalline forms. In another embodiment, pharmaceutical compositions of Form A, in particular the oral pharmaceutical compositions described herein, when administered to a subject for treating a condition, is sufficient to affect such treatment. In another embodiment, pharmaceutical compositions of Form A, in particular the oral pharmaceutical compositions described herein, when administered to a subject for treating a condition, is sufficient to affect such treatment when dosed 1 to 3 times per day or less (such as 1 to 2 times). In another embodiment, pharmaceutical compositions of Form A, in particular the oral pharmaceutical compositions described wherein when administered to a subject provide for a therapeutically effective amount of the compound of at least 10 ng/ml, at least 15 ng/ml or at least 25 ng/ml in the blood of the subject for a period of at least from two hours to four hours after administration to a subject. […]

Series [4] is described as follows: Aqueous solubility assay in buffer and simulated gastric/intestinal fluids. As to conditions: 37 °C, thermodynamic from solid, Observed Solubility, Target 100 μM, 24 hours. The protocol: The target concentration in each solution was 100 μM. […] The aqueous solutions were added (1 mL) to the dried samples and mixed at 400 rpm at 37° C. on an orbital plate shaker. […] Samples were prepared in triplicate. Testosterone and verapamil were used as reference compounds.

With `C[C@@H]1C[C@H]2[C@@H]3CCC4=CC(=O)C=C[C@]4(C)[C@@]3(F)[C@@H](O)C[C@]2(C)[C@@]1(O)C(=O)CO` [Dexamethasone, reference compound], the log distribution coefficient (logD) at 24 h in series [1] turned out to be 1.5.
As to `C=Cc1cc(C(=O)Nc2ccc(C(=N)N)cc2)c(-c2ccc(C(=O)NCC3CC3)nc2C(=O)O)cc1OC.Cl` [Form A, 3-[2-(4-Carbamimidoylphenylcarbamoyl)-5-methoxy-4-vinylphenyl]-6-(cyclopropylmethylcarbamoyl)pyridine-2-carboxylic acid hydrochloride], the concentration solubilized entry in series [2] is listed as “greater than 140 mg/ml”. In series [3], the “conversion to other polymorphic forms” value is listed as “not observed”.
As to `C[C@]12CC[C@H]3[C@@H](CCC4=CC(=O)CC[C@@]43C)[C@@H]1CC[C@@H]2O` [Testosterone, reference compound], the solubility at 24 h in series [4] (fassgf or other biorelevant, Fasted-State SGF) is 43 µM (≈ 12.4 µg/mL); in series [4] (fassgf or other biorelevant, Fed-State SGF), 27 µM (≈ 7.79 µg/mL); in series [4] (fassif, Fasted-State SIF), 35 µM (≈ 10.1 µg/mL); in series [4] (fessif, Fed-State SIF), 36 µM (≈ 10.4 µg/mL); in series [4] (pH 7.4, aqueous buffer, 0.1M phosphate buffer pH 7.4, 37° C.), 42 µM (≈ 12.1 µg/mL).

For orientation: logD means lipophilicity at a set pH, counting ionised and neutral species. A low value points to lower lipophilicity. Broadly, the solubility is the concentration that dissolves in the medium under given conditions.
